Results published in patent publication US11458189B2, “Cytoprotective drugs” (BALMES TRANSPLANTATION, priority 2017, dated 2022).
Starred links: 1 amine or outer side, 2 acyl side, 3 side chain; linkers in the order of their positions; H or OH if unused. Positions of bridges follow the written chain, without caps; N, C: chain ends. Non-standard residues stand in square brackets, D forms with d. Residues, ends and D or L forms follow the SMILES beside them. *: point of attachment. hTyr(3S-OH,4S-OH,3'-OSO3H) = N[C@H](C(=O)O)[C@H](O)[C@@H](O)c1ccc(O)c(OS(=O)(=O)O)c1; Orn(4R-OH,5R-OH) = O=C([C@H](C[C@@H](O)[C@@H](O)N[*:3])N[*:1])[*:2]; Pro(3S-OH,4S-Me) = C[C@H]1CN[C@H](C(=O)O)[C@H]1O; X1 = CCCCCOc1ccc(-c2cc(-c3ccc(C(=O)*)cc3)no2)cc1; Gln(3R-OH) = NC(=O)C[C@@H](O)[C@H](N)C(=O)O; Hyp = O=C(O)[C@@H]1C[C@@H](O)CN1

Test system: Human Renal Proximal Tubular Epithelial Cells (HRPTEpiC)
Assay: Oxygen and glucose deprivation followed by replenishment, cell survival (calcein AM), HRPTEpiC
Type: cell-based
Experimental: Anidulafungin and micafungin were tested on Human Renal Glomerular Endothelial Cells (HRGEC, Innoprot P10665), on Human Renal Proximal Tubular Epithelial Cells (HRPTEpiC, Innoprot P10662), on Human Astrocytes (HA, caltag SC-1800), on Human Cardiac Microvascular Endothelial Cells (HCMEC, Caltag SC-6000), on Human Hepatic Sinusoidal Endothelial Cells (HHSEC, Caltag SC-5000), on Rat Primary Kidney Glomerular Endothelial cells (Cellbiologics, RN-6014G) and on Bovine Brain Microvascular Endothelial Cells (BBMEC, Caltag SC-B100).
In a first phase, these isolated, purified and cryopreserved cells are thawed and multiplied according to the supplier's recommendations in T75 or T175 flasks pre-coated with 2 μg of fibronectin/[…] (CORNING) for HRGEC, HCMEC, HHSEC and BBMEC, or 2 μg poly-L-lysin/cm^2 (Caltag SC-0403) for HRPTEpiC and HA, or 15 mL/flask 175 cm^2 gelatin-based solution (Cellbiologics) in the presence of endothelial cell supplemented growth medium ECM (P60104, INNOPROT, Caltag, SC-1001) for HRGEC, HCMEC, HHSEC, RPKGEC or BBMEC, or astrocyte cell supplemented growth medium AM (Caltag SC-1801) for HA or epithelial cell supplemented growth medium EpiCM (P60106, INNOPROT) for HRPTEpiC, at 37° C. under 5% CO2 and saturated humidity until their confluency. They are then harvested by trypsinization according to the method described by the supplier for exactly 5 minutes and then reseeded in new flasks a maximum of three times.
To carry out the oxygen and glucose deprivation test followed by their replenishment, the cells will be seeded in 96-well black plates with transparent flat bottom (GREINER). Once a sufficient number of cells has been obtained to allow seeding of 2000 to 15000 cells per well of 96-well plates depending on the cell type, the cells are seeded in these 96-well plates previously coated with an extracellular matrix as listed above for the flasks. The cells are cultured for 5 to 8 days according to the cell type, in the presence of the same growth medium as in the flask as described above except for HRGEC and HRPTEpiC for which DMEM (DUTSCHER) with 1 g/L of supplemented glucose is used, at 37° C. under 5% CO2 and saturated humidity to obtain confluency.
On the first day of oxygen and glucose deprivation, (5th, 6th, 7th or 8th day of culture), the culture conditions are drastically changed. The medium of all plates is removed and replaced by DMEM (DUTSCHER) medium without glucose and supplemented only with 1% penicillin-streptomycin (DUTSCHER). Anidulafungin or micafungin dissolved in dimethyl sulfoxide (DMSO) is then added to each well at the desired concentration, resulting in a maximum of 1% DMSO, and the plates are placed under hypoxia at <1% 02 and 5% CO2 at 37° C. for 24 hours of culture. Each compound was tested in a concentration range.
After 24 hours, the growth medium is changed and replaced by a richer medium, DMEM (DUTSCHER) at 1 g/L glucose and 2% FBS (INNOPROT) and 1% penicillin-streptomycin (DUTSCHER). These media will have been pre-equilibrated at 37° C. in advance. The cells are then returned to culture at 37° C. under 20% 02 and 5% CO2 for 22h.
After 22 hours of reoxygenation, the potential protective effect of anidulafungin or micafungin is measured by a cell viability test using calcein AM (CORNING), which is a dye substrate. The calcein AM can easily cross the cell membrane of the viable cells. The AM ester groups mask the part of the molecule that chelates calcium. Once inside the cells, the (non-fluorescent) calcein AM is hydrolyzed to (fluorescent) calcein by endogenous esterases. The resulting calcein molecule binds to calcium inside the cell and remains trapped inside the cell. These molecules emit strong green fluorescence when subjected to […] of a particular wavelength (495 nm). Since dead cells lack esterase activity, only living cells are labelled.
This cell viability test is performed in two steps. […]

## CCCCCOc1ccc(-c2cc(-c3ccc(C(=O)N[C@H]4C[C@@H](O)[C@@H](O)NC(=O)[C@@H]5[C@@H](O)[C@@H](C)CN5C(=O)[C@H]([C@H](O)CC(N)=O)NC(=O)[C@H]([C@H](O)[C@@H](O)c5ccc(O)c(OS(=O)(=O)O)c5)NC(=O)[C@@H]5C[C@@H](O)CN5C(=O)[C@H]([C@@H](C)O)NC4=O)cc3)no2)cc1 [Micafungin, {5-[(1S,2S)-2-[(3S,6S,9S,11R,15S,18S,20R,21R,24S,25S,26S)-3-[(1R)-2-carbamoyl-1-hydroxyethyl]-11,20,21,25-tetrahydroxy-15-[(1R)-1-hydroxyethyl]-26-methyl-2,5,8,14,17,23-hexaoxo-18-[(4-{5-[4-(pentyloxy)phenyl]-1,2-oxazol-3-yl}benzene)amido]-1,4,7,13,16,22-hexaazatricyclo[22.3.0.0]heptacosan-6-yl]-1,2-dihydroxyethyl]-2-hydroxyphenyl}oxidanesulfonic acid] (X1-[Orn(4R-OH,5R-OH)]T[Hyp][hTyr(3S-OH,4S-OH,3'-OSO3H)][Gln(3R-OH)][Pro(3S-OH,4S-Me)]; lactam 1-C)
[Micafungin] log μM −4.39794
  Globalfluo assay 1: 17038910 arbitrary units
  Globalfluo assay 2: 16914110 arbitrary units
  Globalfluo assay 3: 17516930 arbitrary units
  Mean globalfluo: 17156650 arbitrary units
  Survival rate (%): 58%
[Micafungin] log μM −4.69897
  Globalfluo assay 1: 18487560 arbitrary units
  Globalfluo assay 2: 18879740 arbitrary units
  Globalfluo assay 3: 18282240 arbitrary units
  Mean globalfluo: 18549847 arbitrary units
  Survival rate (%): 63%
[Micafungin] log μM −4.79588
  Globalfluo assay 1: 17777390 arbitrary units
  Globalfluo assay 2: 17681470 arbitrary units
  Globalfluo assay 3: 18724080 arbitrary units
  Mean globalfluo: 18060980 arbitrary units
  Survival rate (%): 61%
[Micafungin] log μM −4.853872
  Globalfluo assay 1: 17634840 arbitrary units
  Globalfluo assay 2: 17920170 arbitrary units
  Globalfluo assay 3: 19831830 arbitrary units
  Mean globalfluo: 18462280 arbitrary units
  Survival rate (%): 63%
[Micafungin] log μM −4.920819
  Globalfluo assay 1: 18495680 arbitrary units
  Globalfluo assay 2: 17954570 arbitrary units
  Globalfluo assay 3: 19304800 arbitrary units
  Mean globalfluo: 18585017 arbitrary units
  Survival rate (%): 64%
[Micafungin] log μM −5
  Globalfluo assay 1: 19091330 arbitrary units
  Globalfluo assay 2: 21245570 arbitrary units
  Globalfluo assay 3: 20574080 arbitrary units
  Mean globalfluo: 20303660 arbitrary units
  Survival rate (%): 71%
[Micafungin] log μM −5.30103
  Globalfluo assay 1: 17265090 arbitrary units
  Globalfluo assay 2: 20693980 arbitrary units
  Globalfluo assay 3: 20348120 arbitrary units
  Mean globalfluo: 19435730 arbitrary units
  Survival rate (%): 67%
[Micafungin] log μM −5.69897
  Globalfluo assay 1: 5296218 arbitrary units
  Globalfluo assay 2: 13559640 arbitrary units
  Globalfluo assay 3: 14370600 arbitrary units
  Mean globalfluo: 11075486 arbitrary units
  Survival rate (%): 32%
[Micafungin] log μM −5.823909
  Globalfluo assay 1: 4696579 arbitrary units
  Globalfluo assay 2: 8382404 arbitrary units
  Globalfluo assay 3: 9632039 arbitrary units
  Mean globalfluo: 7570341 arbitrary units
  Survival rate (%): 18%
[Micafungin] log μM −6
  Globalfluo assay 1: 5307945 arbitrary units
  Globalfluo assay 2: 5614600 arbitrary units
  Globalfluo assay 3: 8026091 arbitrary units
  Mean globalfluo: 6316212 arbitrary units
  Survival rate (%): 13%
[Micafungin] log μM −6.09691
  Globalfluo assay 1: 6028392 arbitrary units
  Globalfluo assay 2: 5998920 arbitrary units
  Globalfluo assay 3: 5793032 arbitrary units
  Mean globalfluo: 5940115 arbitrary units
  Survival rate (%): 11%
[Micafungin] log μM −6.221849
  Globalfluo assay 1: 4745212 arbitrary units
  Globalfluo assay 2: 4694631 arbitrary units
  Globalfluo assay 3: 5790310 arbitrary units
  Mean globalfluo: 5076718 arbitrary units
  Survival rate (%): 8%
[Micafungin] log μM −6.39794
  Globalfluo assay 1: 4361975 arbitrary units
  Globalfluo assay 2: 4442347 arbitrary units
  Globalfluo assay 3: 5176795 arbitrary units
  Mean globalfluo: 4660372 arbitrary units
  Survival rate (%): 6%
[Micafungin] log μM −6.69897
  Globalfluo assay 1: 4839699 arbitrary units
  Globalfluo assay 2: 4005588 arbitrary units
  Globalfluo assay 3: 4289833 arbitrary units
  Mean globalfluo: 4378373 arbitrary units
  Survival rate (%): 5%
[Micafungin] log μM −7
  Globalfluo assay 1: 3602590 arbitrary units
  Globalfluo assay 2: 3530551 arbitrary units
  Globalfluo assay 3: 3665638 arbitrary units
  Mean globalfluo: 3599593 arbitrary units
  Survival rate (%): 2%
[Micafungin] log μM −8
  Globalfluo assay 1: 3781795 arbitrary units
  Globalfluo assay 2: 3409519 arbitrary units
  Globalfluo assay 3: 3718559 arbitrary units
  Mean globalfluo: 3636624 arbitrary units
  Survival rate (%): 2%
